In US9408842B2, “Substituted pyrano and furanoquinolines, their preparation and use as medicaments” (LABORATORIOS DEL DR. ESTEVE S.A., priority 2012, dated 2016):
Where a name gives a salt, the structure may show the parent alone.

target: T1, σ1-receptor (Cavia porcellus, UniProt Q60492); assay: binding assay for the σ1-receptor, [3H]-(+)-pentazocine, brain membranes; settings: guinea pig brain membranes; radioligand [3H]-(+)-pentazocine 5.0 nM; 150 min at 37° C.; nonspecific binding with 1 μM haloperidol
T1 construct: Guinea pig brains were homogenized in 10 vols; (w/v) of Tris-HCl 50 mM 0.32 M sucrose, pH 7.4; from tissue; host or cells: guinea pig brain membranes
Experimental: Guinea pig brains were homogenized in 10 vols. (w/v) of Tris-HCl 50 mM 0.32 M sucrose, pH 7.4, with a Kinematica Polytron PT 3000 at 15000 r.p.m. for 30 s. The homogenate was centrifuged at 1000 g for 10 min at 4° C. and the supernatants collected and centrifuged again at 48000 g for 15 min at 4° C. The pellet was resuspended in 10 volumes of Tris-HCl buffer (50 mM, pH 7.4), incubated at 37° C. for 30 min, and centrifuged at 48000 g for 20 min at 4° C. Following this, the pellet was re-suspended in fresh Tris-HCl buffer (50 mM, pH 7.4) and stored on ice until use.
The radioligand used was [^3H]-(+)-pentazocine at 5.0 nM and the final volume was 200 μl. The incubation was initiated with the addition of 100 μl of membrane at a final tissue concentration of approximately 5 mg tissue net weight/mL and the incubation time was 150 m. at 37° C. After incubation, the membranes were collected onto pretreated glass fiber filterplate (MultiScreen-FC, Millipore), with polyethylenimine 0.1%. The filters were washed two times with 200 μl of washing buffer (50 mM Tris Cl, pH=7.4) and then 25 μl of Ecoscint H liquid scintillation cocktail were added. […] Nonspecific binding was determined with 1 μM haloperidol.

T1 sequence (Q60492 whole entry): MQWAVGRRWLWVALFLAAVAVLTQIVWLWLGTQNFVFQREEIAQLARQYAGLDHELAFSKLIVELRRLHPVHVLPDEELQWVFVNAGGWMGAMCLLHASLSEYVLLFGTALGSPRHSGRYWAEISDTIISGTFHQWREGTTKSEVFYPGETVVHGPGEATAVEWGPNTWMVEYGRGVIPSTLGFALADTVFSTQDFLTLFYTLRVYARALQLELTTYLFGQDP

SMILES | Ki [nM]
Clc1ccc(Oc2ccc3c(c2)[C@H]2OCC[C@H]2[C@@H](C2CCCCC2)N3)cc1Cl (racemic) [Example 92, (3aSR*,4RS*,9bSR*)-4-cyclohexyl-8-(3,4-dichlorophenoxy)-2,3,3a,4,5,9b-hexahydrofuro[3,2-c]quinoline hydrochloride] | 110
CC(C)CCOc1ccc2c(c1)[C@H]1OCC[C@H]1[C@@H](C1CCCCC1)N2 (racemic) [Example 32, (3aSR*,4RS*,9bSR*)-4-cyclohexyl-8-(isopentyloxy)-2,3,3a,4,5,9b-hexahydrofuro[3,2-c]quinoline hydrochloride] | 108
NCCCOc1ccc2c(c1)[C@H]1OCC[C@H]1[C@@H](C1CCCCC1)N2 (racemic) [Example 106, 3-((3aSR*,4RS*,9bSR*)-4-cyclohexyl-2,3,3a,4,5,9b-hexahydrofuro[3,2-c]quinolin-8-yloxy)propan-1-amine hydrochloride] | 25.3
CCCCCc1ccc2c(c1)[C@H]1OCC[C@H]1[C@@H](C1CCOCC1)N2 (racemic) [Example 85, (3aSR*,4RS*,9bSR*)-8-pentyl-4-(tetrahydro-2H-pyran-4-yl)-2,3,3a,4,5,9b-hexahydrofuro[3,2-c]quinoline hydrochloride] | 155
CCCCCc1ccc2c(c1)[C@H]1OCCC[C@H]1[C@@H](C1CCCCC1)N2 (racemic) [Example 59, (4aSR*,5RS*,10bSR*)-5-cyclohexyl-9-pentyl-3,4,4a,5,6,10b-hexahydro-2H-pyrano[3,2-c]quinoline] | 132
Clc1ccc(Oc2ccc3c(c2)[C@H]2OCC[C@H]2[C@@H](C2CCCCC2)N3)cc1 (racemic) [Example 86, (3aSR*,4RS*,9bSR*)-8-(4-chlorophenoxy)-4-cyclohexyl-2,3,3a,4,5,9b-hexahydrofuro[3,2-c]quinoline] | 78.2

Other lines, results leading:

Ki [nM] | SMILES
311 | c1cc2c(cc1OCCN1CCOCC1)[C@H]1OCCC[C@H]1[C@@H](C1CCCCC1)N2 (racemic) [Example 67, (4aSR*,5RS*,10bSR*)-5-cyclohexyl-9-(2-morpholinoethoxy)-3,4,4a,5,6,10b-hexahydro-2H-pyrano[3,2-c]quinoline]
187 | Clc1cccc(Oc2ccc3c(c2)[C@H]2OCCC[C@H]2[C@@H](C2CCCCC2)N3)c1 (racemic) [Example 1, (4aSR*,5RS*,10bSR*)-9-(3-chlorophenoxy)-5-cyclohexyl-3,4,4a,5,6,10b-hexahydro-2H-pyrano[3,2-c]quinoline hydrochloride]
267 | Fc1ccc(COc2ccc3c(c2)[C@H]2OCC[C@H]2[C@@H](C2CCCCC2)N3)cc1 (racemic) [Example 91, (3aSR*,4RS*,9bSR*)-4-cyclohexyl-8-(4-fluorobenzyloxy)-2,3,3a,4,5,9b-hexahydrofuro[3,2-c]quinoline hydrochloride]
279 | COc1ccc2c(c1)[C@H]1OCCC[C@H]1[C@@H](C1CCN(CCc3ccccc3)CC1)N2 (racemic) [Example 108, (4aSR*,5RS*,10bSR*)-9-methoxy-5-(1-phenethylpiperidin-4-yl)-3,4,4a,5,6,10b-hexahydro-2H-pyrano[3,2-c]quinoline hydrochloride]
79.3 | Clc1ccc(Oc2ccc3c(c2)[C@H]2OCCC[C@H]2[C@@H](C2CCCCC2)N3)cc1Cl (racemic) [Example 93, (4aSR*,5RS*,10bSR*)-5-cyclohexyl-9-(3,4-dichlorophenoxy)-3,4,4a,5,6,10b-hexahydro-2H-pyrano[3,2-c]quinoline hydrochloride]
302 | Clc1ccc(Oc2ccc3c(c2)[C@H]2OCC[C@H]2[C@@H](C2CCCCC2)N3)cc1 (racemic) [Example 87, (3aSR*,4RS*,9bSR*)-8-(4-chlorophenoxy)-4-cyclohexyl-2,3,3a,4,5,9b-hexahydrofuro[3,2-c]quinoline hydrochloride]
15.1 | CC(C)CCOc1ccc2c(c1)[C@H]1OCCC[C@H]1[C@@H](C1CCN(Cc3ccccc3)CC1)N2 (racemic) [Example 6, (4aSR*,5RS*,10bSR*)-5-(1-benzylpiperidin-4-yl)-9-(isopentyloxy)-3,4,4a,5,6,10b-hexahydro-2H-pyrano[3,2-c]quinoline hydrochloride]
